# Measurements taken from patent publication US20260055051A1, “Compound with anti-tumor activity, preparation method therefor, and use thereof” (Ocean University of China, priority 2022, published 2026).
# pIC50: −log10 of the molar value.
# What was measured:
# HCT116 cells = test: HCT116 cell-BALB/c nude mouse subcutaneous tumor transplantation experiment; type: in vivo, BALB/c nude mice; conditions: HCT116 model, test compound 0.5 mg/mL at 10 mL/kg tail vein, 15 times, 6 times; for average tumor volume at the end of the experiment: 5 times a week, 5-fu 20 mg/kg twice a week; for inhibitory effect (inhibition rate of average tumor weight, FIG. 6): 5-fu 20 mg/kg
# Protocol: (§1) BALB/c nude mice were subcutaneously inoculated with A549, HCT116 and HT-29 cells to establish tumor transplantation models. • Solvent Control Group: 2% DMSO+normal saline+sodium carbonate (the molar ratio of the compound to sodium carbonate is 1:2) • 5-fluorouracil control group: 5-fluorouracil injection (20 mg/kg);
# (§2) Test compound group: 1 mg of a test compound was fully dissolved in […] DMSO, and then diluted with normal saline to 0.5 mg/mL. 2 mL was used each time, freshly prepared before use on the same day.
# (§3) Eight mice were in each group.
# (§4) The solvent control group and the test compound group were administered at a dose of 10 mL/kg via tail vein injection (the dose for each administration was calculated based on the body weight on that day), 5 times a week, for a total of 15 times. The animals were euthanized after the last administration.
# (§5) The 5-fluorouracil control group was administered twice a week for a total of 6 times.
# (§6) The body weight and tumor diameter were measured twice a week during the administration period. Tumors and the spleen were removed and weighed after euthanasia. The tumor volume, relative tumor volume (RTV), relative tumor growth rate (T/C %), tumor volume inhibition rate (IRTV%), and tumor weight inhibition rate (IRTW%) were calculated. Data for animals that died accidentally were only listed but excluded from statistical analysis.
# [1] = Body weight of tumor-transplanted mice during administration; type: in vivo; conditions: A549, HCT116 and HT-29 transplanted mice, during administration period
# Protocol: as §1, §2, §3, §4, §5, §6
# HT-29 cells = test: HT-29 cell-BALB/c nude mouse subcutaneous tumor transplantation experiment; type: in vivo, BALB/c nude mice; conditions: HT-29 model, test compound 0.5 mg/mL at 10 mL/kg tail vein, 15 times, 6 times; for average tumor volume at the end of the experiment: 5 times a week, 5-fu 20 mg/kg twice a week; for inhibitory effect (inhibition rate of average tumor weight, FIG. 6): 5-fu 20 mg/kg
# Protocol: as §1, §2, §3, §4, §5, §6
# A549 cells = test: A549 cell-BALB/c nude mouse subcutaneous tumor transplantation experiment; type: in vivo, BALB/c nude mice; conditions: A549 model, test compound 0.5 mg/mL at 10 mL/kg tail vein, 15 times, 6 times; for average tumor volume at the end of the experiment: 5 times a week, 5-fu 20 mg/kg twice a week; for inhibitory effect (inhibition rate of average tumor weight, FIG. 6): 5-fu 20 mg/kg
# Protocol: as §1, §2, §3, §4, §5, §6
# [2] = test system: human colon cancer cell line HT-29; test: In vitro tumor cell proliferation inhibition assay (SRB method), HT-29; type: cell-based; conditions: 72 hours, SRB, mean of triplicate experiments, read-out: IC50 against HT-29
# Protocol: (§7) Sulforhodamine B Colorimetric Method (SRB Method) and MTT Colorimetric Method (MTT Method)
# (§8) Human lung cancer cell line A549, human liver cancer cell line HepG2, human colon cancer cell line HCT116, human colon cancer cell line HT-29, human leukemia cell line K562, human cervical cancer cell line hela, and human breast cancer cell line MCF-7, all provided by the Shanghai Cell Bank, Chinese Academy of Sciences.
# (§9) A549, HepG2, HCT116, HT-29, K562, hela, and MCF-7 cells were cultured respectively in 1640, DMEM, 5A, 5A, 1640, DMEM, and 1640 culture media containing 10 wt % heat-inactivated FBS (fetal bovine serum), 2 mM L-glutamine, 100 U/mL penicillin and […] streptomycin, in a cell incubator at 37° C. and 5 vol % CO2. The medium was replaced every two days. After the A549, HepG2, HCT116, HT-29, hela, and MCF-7 cells were confluent, they were digested with 0.05% (w/v) trypsin-EDTA at 37° C., passaged, and maintained in the logarithmic growth phase suitable for testing. The K562 suspension cells were passaged without digestion, and maintained in the logarithmic growth phase suitable for testing. The A549, HepG2, HCT116, HT-29, K562, hela, and MCF-7 cells in the logarithmic growth phase were inoculated to 96-well plates at 5000, 5000, 5000, 5000, 6000, 5000, 5000 per well, respectively, and cultured at 37° C. for 24 h.
# (§10) Then various concentrations of test samples were added. The positive control group was doxorubicin hydrochloride (final concentration was 1 μM), the solvent control group was an equal volume of DMSO, and the blank control group was an equal volume of a culture medium, with 4 replicate wells for each concentration. After the A549, HepG2, HCT116, HT-29, hela, and MCF-7 cells were treated with the test drugs for 72 hours, the cells in each well were fixed with 50% (m/v) cold trichloroacetic acid (TCA) and stained with SRB. Then […] of Tris solution was added, and the OD value at the wavelength of 540 nm was measured using a microplate reader. For K562 cells, after 72 hours of treatment with the test drugs, […] of 5 mg/mL MTT was added, and the cells were incubated at 37° C. for 4 hours. Next, […] of a triplet solution (10% SDS, 5% isobutanol, 12 mM HCl) was added, followed by further incubation for 12 to 20 hours. The OD value at the wavelength of 570 nm was measured using a microplate reader.
# (§11) The tumor cell growth inhibition rate was calculated according to the following equation: […]
# (§12) in the equation, • OD540 control well is the absorbance of the control group; • OD540 dosing well is the absorbance of the test group.
# (§13) IC50 values of the test drugs (calculated by GraphPad Prism 5 software) were the means of the results of triplicate experiments.
# [3] = test system: human liver cancer cell line HepG2; test: In vitro tumor cell proliferation inhibition assay (SRB method), HepG2; type: cell-based; conditions: 72 hours, SRB; for pIC50: mean of triplicate experiments, read-out: IC50 against HepG2; for inhibition at 10 µM: test compounds 10 μM, read-out: Inhibition rate on HepG2
# Protocol: as §7, §8, §9, §10, §11, §12, §13
# [4] = test system: human cervical cancer cell line hela; test: In vitro tumor cell proliferation inhibition assay (SRB method), hela; type: cell-based; conditions: 72 hours, SRB, mean of triplicate experiments, read-out: IC50 against hela
# Protocol: as §7, §8, §9, §10, §11, §12, §13
# [5] = test system: human leukemia cell line K562; test: In vitro tumor cell proliferation inhibition assay (MTT method), K562; type: cell-based; conditions: 72 hours, mean of triplicate experiments, read-out: IC50 against K562
# Protocol: as §7, §8, §9, §10, §11, §12, §13
# [6] = test system: A549, HepG2, HCT116, HT-29, K562, hela, and MCF-7 cell lines; test: In vitro tumor cell proliferation inhibition assay, summary over all 7 types of cells; type: cell-based; conditions: Homo sapiens, upper bound over A549, HepG2, HCT116, HT-29, K562, hela, MCF-7
# Protocol: as §7, §8, §9, §10, §11, §12, §13
# [7] = test system: human colon cancer cell line HCT116; test: In vitro tumor cell proliferation inhibition assay (SRB method), HCT116; type: cell-based; conditions: SRB; for pIC50: HCT-116, 72 hours, mean of triplicate experiments, read-out: IC50 against HCT116; for inhibition at 10 µM: HCT-116, test compounds 10 μM, 72 hours, read-out: Inhibition rate on HCT116
# Protocol: as §7, §8, §9, §10, §11, §12, §13
# [8] = test system: human breast cancer cell line MCF-7; test: In vitro tumor cell proliferation inhibition assay (SRB method), MCF-7; type: cell-based; conditions: MCF7, 72 hours, SRB, mean of triplicate experiments, read-out: IC50 against MCF-7
# Protocol: as §7, §8, §9, §10, §11, §12, §13
# [9] = test system: human lung cancer cell line A549; test: In vitro tumor cell proliferation inhibition assay (SRB method), A549; type: cell-based; conditions: 72 hours, SRB; for pIC50: mean of triplicate experiments, read-out: IC50 against A549; for inhibition at 10 µM: test compounds 10 μM, read-out: Inhibition rate on A549
# Protocol: as §7, §8, §9, §10, §11, §12, §13
pIC50 [2],pIC50 [3],pIC50 [4],pIC50 [5],pIC50 [6],pIC50 [7],pIC50 [8],pIC50 [9],SMILES,average tumor volume at the end of the experiment (HCT116 cells),"inhibitory effect (inhibition rate of average tumor weight, FIG. 6) (HCT116 cells)",body weight compared to the solvent control (FIG. 2) [1],average tumor volume at the end of the experiment (HT-29 cells),"inhibitory effect (inhibition rate of average tumor weight, FIG. 6) (HT-29 cells)",average tumor volume at the end of the experiment (A549 cells),"inhibitory effect (inhibition rate of average tumor weight, FIG. 6) (A549 cells)",inhibition at 10 µM [3],inhibition at 10 µM [7],inhibition at 10 µM [9]
–,–,–,–,–,–,–,–,"O=c1[nH]cc(F)c(=O)[nH]1 [Compound 5-fu, 5-fluorouracil, reference compound]",599.83 mm^3,44.81%,significant weight loss,658.02 mm^3,44.60%,322.03 mm^3,43.11%,–,–,–
4.75,5.10,5.03,5.03,> 4.45,5.40,5.24,5.18,"COc1c(CNC(=O)CCl)c(C)cc(C)c1CNC(=O)CCl [Compound I-4, N-(2-methoxy-3-chloroacetamidomethyl-4,6-dimethylbenzyl) chloroacetamide]",574.36 mm^3,29.86%,–,–,23.90%,–,22.05%,82.9%,69.3%,69%
4.45,5.08,5.05,5.01,> 4.45,5.13,5.16,5.23,"CC(=O)NCc1c(C)cc(O)c(C)c1C [Compound I-6, N-(2,3,6-trimethyl-4-hydroxybenzyl) acetamide]",–,–,–,559.37 mm^3,32.07%,492.12 mm^3,35.19%,81.1%,96.6%,94.9%
4.54,5.06,5.01,4.89,> 4.45,5.13,5.24,5.09,"Cc1cc(O)c(CNC(=O)CCl)c(C)c1Cl [Compound I-7, N-(2,4-dimethyl-3-chloro-6-hydroxybenzyl) chloroacetamide]",624.48 mm^3,–,–,–,26.52%,559.37 mm^3,33.56%,95.8%,95.1%,55%
